The target of the assay is CDK2 (UniProt P24941). Description: Enzyme Assay. The following applies: concentration not given here.

We go through 59 molecules from the Kinase Knowledgebase extract (Sharma et al. 2016).

`CS(=O)(=O)c1ccccc1S(=O)(=O)Nc1ccc2[nH]nc(-c3ccc(F)cc3F)c2c1`: the inhibition turned out to be 83%.
The figure for `Nc1n[nH]c2ccc(NS(=O)(=O)c3c(Cl)cccc3Cl)cc12` is 18%.
The figure for `N#Cc1ccccc1S(=O)(=O)Nc1ccc2[nH]nc(-c3ccccc3)c2c1` is 69%; for `CS(=O)(=O)c1ccccc1S(=O)(=O)Nc1ccc2[nH]nc(-c3cccnc3)c2c1` it is 88%.
Next, `CS(=O)(=O)c1ccccc1S(=O)(=O)Nc1ccc2[nH]nc(-c3ccc(I)cc3)c2c1`: 20%; `Cc1ccccc1-c1n[nH]c2ccc(NS(=O)(=O)c3ccccc3S(C)(=O)=O)cc12`: 25%.
On to `CS(=O)(=O)c1ccccc1S(=O)(=O)Nc1ccc2[nH]nc(-c3ccc(F)c(F)c3)c2c1`, for which the inhibition is 72%.
Next, `CS(=O)(=O)c1ccccc1S(=O)(=O)Nc1ccc2[nH]nc(-c3cc4ccccc4[nH]3)c2c1`: 99%.
Regarding `CS(=O)(=O)c1ccccc1S(=O)(=O)Nc1ccc2[nH]nc(-c3ccc(F)cc3)c2c1`, the inhibition worked out at 94%.
Next, `CS(=O)(=O)c1ccccc1S(=O)(=O)Nc1ccc2[nH]nc(-c3cccc(C#N)c3)c2c1`: 90%.
Next, `O=S(=O)(Nc1ccc2[nH]nc(-c3ccccc3)c2c1)c1ccc(F)c(F)c1`: 67%; `CS(=O)(=O)c1ccccc1S(=O)(=O)Nc1ccc2[nH]nc(/C=C/c3ccc(F)cc3)c2c1`: 95%; `CS(=O)(=O)c1ccccc1S(=O)(=O)Nc1ccc2[nH]nc(-c3cc(Br)cc(Br)c3)c2c1`: 45%.
`Cc1ccc(-c2n[nH]c3ccc(NS(=O)(=O)c4ccccc4S(C)(=O)=O)cc23)cc1N`: the inhibition turned out to be 78%.
The figure for `CS(=O)(=O)c1ccccc1S(=O)(=O)Nc1ccc2[nH]nc(-c3ccc(OCc4ccccc4)cc3)c2c1` is 16%.
Next, `COC(=O)/C=C/c1n[nH]c2ccc(NS(=O)(=O)c3ccccc3S(C)(=O)=O)cc12`: 37%; `CS(=O)(=O)c1ccccc1S(=O)(=O)Nc1ccc2[nH]nc(-c3cc(Cl)ccc3Cl)c2c1`: 27%.
The figure for `CS(=O)(=O)c1ccccc1S(=O)(=O)Nc1ccc2[nH]nc(-c3cccc4c3oc3ccccc34)c2c1` is 13%.
`O=S(=O)(Nc1ccc2[nH]nc(-c3ccccc3)c2c1)c1cccc2cccnc12`: the inhibition is 99%.
The figure for `COc1ccc(-c2n[nH]c3ccc(NS(=O)(=O)c4ccccc4S(C)(=O)=O)cc23)cc1` is 93%; for `CS(=O)(=O)c1ccccc1S(=O)(=O)Nc1ccc2[nH]nc(NCc3ccccc3)c2c1` it is 92%; for `CS(=O)(=O)c1ccccc1S(=O)(=O)Nc1ccc2[nH]nc(-c3cccc(F)c3)c2c1` it is 69%.
For `CSc1ccccc1-c1n[nH]c2ccc(NS(=O)(=O)c3ccccc3S(C)(=O)=O)cc12`, the inhibition was determined as 19%.
Next, `CS(=O)(=O)c1ccccc1S(=O)(=O)Nc1ccc2[nH]nc(-c3ccco3)c2c1`: 76%.
Next, `Nc1n[nH]c2ccc(NS(=O)(=O)c3c(F)cccc3F)cc12`: 12%; `CS(=O)(=O)c1ccccc1S(=O)(=O)Nc1ccc2[nH]nc(-c3ccc(Br)cc3F)c2c1`: 65%; `Nc1n[nH]c2ccc(NS(=O)(=O)c3cccc(F)c3)cc12`: 34%.
Next, `O=C(O)c1cccc(S(=O)(=O)Nc2ccc3[nH]nc(-c4ccccc4)c3c2)c1`: 40%; `CS(=O)(=O)c1ccccc1S(=O)(=O)Nc1ccc2[nH]nc(-c3ccc(N)cc3)c2c1`: 85%.
`COc1ccc(-c2n[nH]c3ccc(NS(=O)(=O)c4ccccc4S(C)(=O)=O)cc23)c(OC)c1OC` yielded an inhibition of 21%.
`COc1cccc(-c2n[nH]c3ccc(NS(=O)(=O)c4ccccc4S(C)(=O)=O)cc23)c1` yielded an inhibition of 67%.
The figure for `O=S(=O)(Nc1ccc2[nH]nc(-c3ccccc3)c2c1)C1CCNCC1` is 13%; for `COc1ccc(OC)c(S(=O)(=O)Nc2ccc3[nH]nc(-c4ccccc4)c3c2)c1` it is 51%.
`CC1(C)[C@H]2CC[C@]1(CS(=O)(=O)Nc1ccc3[nH]nc(-c4ccccc4)c3c1)C(=O)C2` gave an inhibition of 30%.
The figure for `CS(=O)(=O)c1ccccc1S(=O)(=O)Nc1ccc2[nH]nc(-c3cc(Cl)cc(Cl)c3)c2c1` is 50%; for `CS(=O)(=O)c1ccccc1S(=O)(=O)Nc1ccc2[nH]nc(-c3cccc(Cl)c3)c2c1` it is 80%; for `CNc1n[nH]c2ccc(NS(=O)(=O)c3ccccc3S(C)(=O)=O)cc12` it is 51%.
For the molecule `CS(=O)(=O)c1ccccc1S(=O)(=O)Nc1ccc2[nH]nc(-c3cccc(N)c3)c2c1`, the inhibition came out at 88%.
Next, `O=S(=O)(Nc1ccc2[nH]nc(-c3ccccc3)c2c1)c1ccc2ccccc2c1`: 78%; `C=Cc1ccc(-c2n[nH]c3ccc(NS(=O)(=O)c4ccccc4S(C)(=O)=O)cc23)cc1`: 77%; `CS(=O)(=O)c1ccccc1S(=O)(=O)Nc1ccc2[nH]nc(-c3cccc(C(F)(F)F)c3)c2c1`: 81%.
The figure for `O=S(=O)(Nc1ccc2[nH]nc(-c3cc4ccccc4[nH]3)c2c1)c1ccccc1OC(F)(F)F` is 94%; for `CS(=O)(=O)c1ccccc1S(=O)(=O)Nc1ccc2[nH]nc(C#Cc3ccccc3)c2c1` it is 90%.
Consider `CS(=O)(=O)c1ccccc1S(=O)(=O)Nc1ccc2[nH]nc(-c3nc4ccccc4[nH]3)c2c1`, for which the inhibition is 99%.
The figure for `O=C(Nc1n[nH]c2ccc(NS(=O)(=O)c3cc(F)cc(F)c3)cc12)c1ccccc1` is 82%; for `CS(=O)(=O)c1ccccc1S(=O)(=O)Nc1ccc2[nH]nc(-c3cc4ccccc4s3)c2c1` it is 63%.
Next, `CC(C)c1cccc(-c2n[nH]c3ccc(NS(=O)(=O)c4ccccc4S(C)(=O)=O)cc23)c1`: 59%.
The figure for `O=C(NCc1ccc(S(=O)(=O)Nc2ccc3[nH]nc(-c4ccccc4)c3c2)s1)c1ccccc1` is 40%.
Consider `CS(=O)(=O)c1ccccc1S(=O)(=O)Nc1ccc2[nH]nc(-c3ccoc3)c2c1`, for which the inhibition came out at 80%.
Consider `CN(C)c1cccc2c(S(=O)(=O)Nc3ccc4[nH]nc(-c5ccccc5)c4c3)cccc12`, for which the inhibition came out at 84%.
The molecule `O=S(=O)(Nc1ccc2[nH]nc(-c3ccccc3)c2c1)c1ccccc1C(F)(F)F` registered an inhibition of 81%.
Next, `O=S(=O)(Nc1ccc2[nH]nc(-c3ccccc3)c2c1)c1cccs1`: 80%; `CC(=O)Nc1n[nH]c2ccc(NS(=O)(=O)c3ccccc3S(C)(=O)=O)cc12`: 96%.
The figure for `CC(C)c1ccc(-c2n[nH]c3ccc(NS(=O)(=O)c4ccccc4S(C)(=O)=O)cc23)cc1` is 24%.
Next, `CS(=O)(=O)c1ccccc1S(=O)(=O)Nc1ccc2[nH]nc(-c3ccc(C(F)(F)F)cc3)c2c1`: 83%; `CSc1ccc(-c2n[nH]c3ccc(NS(=O)(=O)c4ccccc4S(C)(=O)=O)cc23)cc1`: 84%; `O=S(=O)(Nc1ccc2[nH]nc(-c3ccccc3)c2c1)c1ccccc1F`: 81%.
For the molecule `CS(=O)(=O)c1ccccc1S(=O)(=O)Nc1ccc2[nH]nc(-c3cc4ccccc4o3)c2c1`, the inhibition amounted to 93%.
The figure for `Nc1ccc(S(=O)(=O)Nc2ccc3[nH]nc(-c4ccccc4)c3c2)cc1` is 70%.

One may read the inhibition as how much of the control response was suppressed. Read a high inhibition as a strong effect.
